Read-outs that look alike come from different tables or passages of the source.
Columns and labels:
bFGF = assay: Summary of effects on growth factor mRNA and protein (Table R): bFGF; parameters: key: ± = mRNA; + = protein; nt = not tested
Text: The constellation of effects of AIT-082 on production of mRNA encoding growth factors and on production of growth factor proteins is shown in Table R. The results summarized in […] show both transcriptional and translational effects on growth factors that are in the categories of neurotrophins, pleiotrophins, members of the S100 family of EF hand calcium binding proteins, and members of the TGFβ superfamily. As indicated, effects have been shown at both the mRNA (transcriptional) and protein (translational) levels.

[1] = tested on: basal forebrain cholinergic neurons; assay: Fimbria-fornix transection, ChAT-positive medial septum neurons; assay type: in vivo, F344 rats; conditions: AIT-082 30 mg/kg IP every three days, 14 days post-lesion
Protocol: This model is the gold standard for examining the effects of neurotrophic factors, neurotrophic factor-releasing agents, and neurotrophic factor analogues in the central nervous system (CNS). Fimbria-fornix transections (FFT) are performed to induce the degeneration of basal forebrain cholinergic (BFC) neurons. […] The infusion of nerve growth factor completely prevents the degeneration of these neurons. In this experiment, animals received AIT-082 to determine whether it would prevent lesion-induced degeneration of BFC neurons.
Adult female F344 rats received an intraperitoneal (IP) injection of AIT-082 (30 mg/kg) or saline one hour prior to receiving a unilateral fimbria-fornix transection (FFT) (n=6 per group). All animals survived the surgery and continued to receive IP injections of AIT-082 or vehicle every three days following the lesion. All animals were perfused with fixative at 14 days post-lesion and brains were sectioned and processed for choline acetyltransferase (ChAT) and p75 immunoreactivity. For analysis, three sections, 240 μm apart, were taken at the level of the medial septum and ChAT positive cells were counted both ipsilateral and contralateral to the lesion.
For the results of FIG. 44, ChAT-positive cells were counted in three sections, 240 μm apart. Data was expressed as a ratio of cell counts ipsilateral to the lesion divided by counts contralateral to the lesion. […]

mice = assay: Home cage locomotor activity; assay type: in vivo
Protocol: To measure home cage locomotor activity, the home cage was placed on a platform of an activity monitor (Stoelting Instruments). Home cage locomotor activity movements were recorded at one minute intervals for 15 minutes. Subjects received saline or AIT-082 and were returned to their home cages. Ten minutes after injection, the home cage was replaced on the platform of the activity monitor. Home cage locomotor activity movements were recorded at one minute intervals for 30 minutes. During the first five minutes, grooming activity was also monitored and recorded.

acetylcholine receptors = assay type: binding, mice; conditions: for number of receptors (B max): mice treated 30 mg/kg 2 hours prior to sacrifice
neocortical astrocytes = assay: NGF-like immunoreactivity in astrocyte culture medium (ELISA); assay type: cell-based, mouse; conditions: astrocytes incubated with different concentrations
Protocol: Astrocytes appear to proliferate in response to extracellular guanosine or guanosine triphosphate (GTP). GTP or guanosine may also stimulate the release of trophic factors from cultures of neocortical astrocytes from neonatal mouse brains. Astrocytes were incubated with different concentrations of guanosine or GTP respectively. Neurotrophin imunoreactivity in the culture medium from treated cells was then measured by ELISA.
Briefly, 96 well Falcon plates (Fisher) were coated with […] of sheep mono-specific anti-NGF IgG (affinity column purified) contained in 0.1M sodium carbonate buffer pH 9.6. After an overnight incubation at 4° C. blocking solution (PBS with 10% goat serum) was added to remove excess antibody. After a four hour incubation at room temperature the plates were washed three times with PBS containing 0.05% Tween 20. The conditioned media and standard 2.5S HPLC purified NGF were added and incubated overnight. The next day plates were washed 3 times with PBS-0.05% Tween 20. The secondary antibody, rabbit mono-specific anti-NGF IgG conjugated with β-galactosidase (Pierce-SPDP method) (1:500 dilution) was added. The plates were incubated overnight at 4° C. The next day the plates were washed 3 times with PBS-0.05% Tween 20. […]
The ELISA assay detected neurotrophins NGF and NT-3 with ahnost equal affinity and BDNF with 100 times less affinity. […]

| SMILES | bFGF, effect on mRNA/protein production (bFGF; Aged Brain) | bFGF, effect on mRNA/protein production (bFGF; Lesioned Brain) | lesion-induced loss of ChAT-labeled cells in the BFC region [1] | Locomotor activity, Movements (mean ± S.D.) Post-drug (mice; AIT dose 0.005 mg/kg) | Locomotor activity, Movements (mean ± S.D.) Difference (mice; AIT dose 0.005 mg/kg, pre-drug minus post-drug) | Locomotor activity, Movements (mean ± S.D.) Difference (mice; AIT dose 0.05 mg/kg) | Locomotor activity, Movements (mean ± S.D.) Post-drug (mice; AIT dose 0.05 mg/kg) | Locomotor activity, Movements (mean ± S.D.) Difference (mice; AIT dose 0.5 mg/kg) | Locomotor activity, Movements (mean ± S.D.) Post-drug (mice; AIT dose 0.5 mg/kg) | Locomotor activity, Movements (mean ± S.D.) Difference (mice; AIT dose 30.0 mg/kg) | Locomotor activity, Movements (mean ± S.D.) Post-drug (mice; AIT dose 30.0 mg/kg) | affinity (Kd) for QNB (acetylcholine receptors) | number of receptors (B max) (acetylcholine receptors; cortex) | number of receptors (B max) (acetylcholine receptors; striatum) | NGF-like immunoreactivity in the culture medium (neocortical astrocytes) |
| --- | --- | --- | --- | --- | --- | --- | --- | --- | --- | --- | --- | --- | --- | --- | --- |
| O=C(CCn1cnc2c(=O)[nH]cnc21)Nc1ccc(C(=O)O)cc1 [AIT-082, N-4-carboxyphenyl-3-(6-oxohydropurin-9-yl)propanamide] | ± | ± | did not reduce lesion-induced loss of ChAT-labeled cells | 1375 ± 563 | 509 ± 429 | 209 ± 340 | 1508 ± 456 | 290 ± 435 | 1320 ± 689 | 342 ± 267 | 1098 ± 189 | no effect | decrease | increase |  |
| Nc1nc2c(ncn2[C@@H]2O[C@H](CO)[C@@H](O)[C@H]2O)c(=O)[nH]1 [guanosine] |  |  |  |  |  |  |  |  |  |  |  |  |  |  | increased the amount of NGF-like immunoreactivity |

Source: patent publication US6338963B1, “Use of carbon monoxide dependent guanylyl cyclase modifiers to stimulate neuritogenesis” (NeoTherapeutics, Inc., priority 1994, dated 2002)
